In patent US8859580B2 (Boehringer Ingelheim International GmbH, priority 2007, dated 2014) one finds IC50 data, which are given here for 28 compounds.

Each structure is given as a SMILES string.

This experiment concerns the target T1, 11β-HSD1 (Homo sapiens, UniProt P28845).
T1 construct: detecting cortisol generated from cortisterone by human liver microsomes; from tissue; host or cells: human liver microsomes
As to the kind of experiment: In vitro inhibition of 11β-HSD1, HTRF detection of cortisol generated from cortisone by human liver microsomes. Format: biochemical. The settings on record: 11β-HSD IC50 (nM), 1 hour at 37° C., pH 6.0, NADPH 200 μM, cortisone 80 nM, inhibition relative to carbenoxolone signal. On the procedure: Cortisol generated in the reaction is then detected with a competitive immunoassay, involving two HTRF conjugates: cortisol linked to XL665 and anti-cortisol antibody labeled with Europium cryptate. The incubation period for detection reaction was typically 2 hours. […] The ratio of the two emission signals is then calculated (Em665*10000/Em615). […] Each assay also contained a calibration curve with cortisol to transform the fluorescent data into cortisol concentrations. Percent inhibition of each compound was determined relative to the carbenoxolone signal and IC50 curves were generated.
For orientation: Time-resolved FRET reads energy transfer from a long-lived donor to a nearby acceptor.

T1 sequence (P28845 whole entry): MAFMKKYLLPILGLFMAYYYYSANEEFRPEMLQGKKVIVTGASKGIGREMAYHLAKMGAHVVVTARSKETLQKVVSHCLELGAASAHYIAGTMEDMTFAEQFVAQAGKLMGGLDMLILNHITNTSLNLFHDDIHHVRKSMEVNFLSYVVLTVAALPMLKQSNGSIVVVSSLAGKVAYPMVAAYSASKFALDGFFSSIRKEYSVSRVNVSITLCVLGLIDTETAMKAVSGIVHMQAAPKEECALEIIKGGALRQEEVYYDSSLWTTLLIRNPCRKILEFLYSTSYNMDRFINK

In general, IC50 refers to the point on the concentration scale where inhibition reaches its midpoint. Read a high IC50 as weaker potency in that assay. `Cc1ccc(C(=O)N2CC[C@@]3(C)c4cccc(O)c4C[C@@H]2C3(C)C)cc1` [Example 12, [(2R,6S)-10-Hydroxy-6,11,11-trimethyl-1,2,5,6-tetrahydro-4H-2,6-methano-benzo[d]azocin-3-yl]-p-tolyl-methanone]: the IC50 amounted to 792 nM.

Regarding `CC1(C)[C@H]2Cc3c(O)cccc3[C@]1(C)CCN2C(=O)c1ccc(C#N)cc1` [Example 13], 1610 nM corresponded to half-maximal inhibition (IC50).

`COc1ccc(C(=O)N2CC[C@@]3(C)c4cccc(O)c4C[C@@H]2C3(C)C)cc1` [Example 14, [(2R,6S)-10-Hydroxy-6,11,11-trimethyl-1,2,5,6-tetrahydro-4H-2,6-methano-benzo[d]azocin-3-yl]-(4-methoxy-phenyl)-methanone] gave an IC50 of 734 nM.

The compound `CC(=O)Nc1ccc(C(=O)N2CC[C@@]3(C)c4cccc(O)c4C[C@@H]2C3(C)C)cc1` [Example 15, N-{4-[(2R,6S)-10-Hydroxy-6,11,11-trimethyl-1,2,5,6-tetrahydro-4H-2,6-methano-benzo[d]azocine-3-carbonyl]-phenyl}-acetamide] gave an IC50 of 354 nM.

`CC(O)(c1ccc(C(=O)N2CC[C@@]3(C)c4cccc(O)c4C[C@@H]2C3(C)C)cc1)C(F)(F)F` (stereo partly drawn) [Example 16, [(2R,6S)-10-Hydroxy-6,11,11-trimethyl-1,2,5,6-tetrahydro-4H-2,6-methano-benzo[d]azocin-3-yl]-[4-(2,2,2-trifluoro-1-hydroxy-1-methyl-ethyl)-phenyl]-methanone]: the IC50 turned out to be 360 nM.

With `Cc1nc2ccc(C(=O)N3CC[C@@]4(C)c5cccc(O)c5C[C@@H]3C4(C)C)cc2[nH]1` [Example 17, [(2R,6S)-10-Hydroxy-6,11,11-trimethyl-1,2,5,6-tetrahydro-4H-2,6-methano-benzo[d]azocin-3-yl]-(2-methyl-3H-benzoimidazol-5-yl)-methanone], inhibition was half-maximal at 1380 nM (IC50).

Turning to `CC1(C)[C@H]2Cc3c(O)cccc3[C@]1(C)CCN2C(=O)c1cccc2[nH]cnc12` [Example 18, (1H-Benzoimidazol-4-yl)-[(2R,6S)-10-hydroxy-6,11,11-trimethyl-1,2,5,6-tetrahydro-4H-2,6-methano-benzo[d]azocin-3-yl]-methanone], the IC50 was found to be 3680 nM.

For `Cn1cnc2cc(C(=O)N3CC[C@@]4(C)c5cccc(O)c5C[C@@H]3C4(C)C)ccc21` [Example 19, [(2R,6S)-10-Hydroxy-6,11,11-trimethyl-1,2,5,6-tetrahydro-4H-2,6-methano-benzo[d]azocin-3-yl]-(1-methyl-1H-benzoimidazol-5-yl)-methanone], the IC50 was 658 nM.

For `CC1(C)[C@H]2Cc3c(O)cccc3[C@]1(C)CCN2C(=O)c1ccc2c(c1)OCCO2` [Example 20, (2,3-Dihydro-benzo[1,4]dioxin-6-yl)-[(2R,6S)-10-hydroxy-6,11,11-trimethyl-1,2,5,6-tetrahydro-4H-2,6-methano-benzo[d]azocin-3-yl]-methanone], it took 254 nM to reach half-maximal inhibition (IC50).

In turn, `CC1(C)[C@H]2Cc3c(O)cccc3[C@]1(C)CCN2C(=O)c1ccc2nn[nH]c2c1` [Example 21, (3H-Benzotriazol-5-yl)-[(2R,6S)-10-hydroxy-6,11,11-trimethyl-1,2,5,6-tetrahydro-4H-2,6-methano-benzo[d]azocin-3-yl]-methanone] registered a half-inhibitory concentration (IC50) of 669 nM.

In turn, `CC1(C)[C@H]2Cc3c(O)cccc3[C@]1(C)CCN2C(=O)c1ccc(CN2CCCCC2)cc1` [Example 22, [(2R,6S)-10-Hydroxy-6,11,11-trimethyl-1,2,5,6-tetrahydro-4H-2,6-methano-benzo[d]azocin-3-yl]-(4-piperidin-1-ylmethyl-phenyl)-methanone] registered a 50% inhibitory concentration (IC50) of 5040 nM.

As to `CC1(C)[C@H]2Cc3c(O)cccc3[C@]1(C)CCN2C(=O)c1ccc(CN2CCOCC2)cc1` [Example 24, [(2R,6S)-10-Hydroxy-6,11,11-trimethyl-1,2,5,6-tetrahydro-4H-2,6-methano-benzo[d]azocin-3-yl]-(4-morpholin-4-ylmethyl-phenyl)-methanone], 134 nM corresponded to half-maximal inhibition (IC50).

In turn, `CC1(C)[C@H]2Cc3c(O)cccc3[C@]1(C)CCN2C(=O)c1ccc(N2CCOCC2)cc1` [Example 25, [(2R,6S)-10-Hydroxy-6,11,11-trimethyl-1,2,5,6-tetrahydro-4H-2,6-methano-benzo[d]azocin-3-yl]-(4-morpholin-4-yl-phenyl)-methanone] yielded an IC50 of 686 nM.

`CC1(C)[C@H]2Cc3c(O)cccc3[C@]1(C)CCN2C(=O)c1ccc(N2CCNCC2)cc1` [Example 26, [(2R,6S)-10-Hydroxy-6,11,11-trimethyl-1,2,5,6-tetrahydro-4H-2,6-methano-benzo[d]azocin-3-yl]-(4-piperazin-1-yl-phenyl)-methanone]: it took 2890 nM to reach half-maximal inhibition (IC50).

Take `CC(=O)Nc1ccc(C(=O)N2CC[C@@]3(C)c4cccc(O)c4C[C@@H]2C3(C)C)cc1F` [Example 27, N-{2-Fluoro-4-[(2R,6S)-10-hydroxy-6,11,11-trimethyl-1,2,5,6-tetrahydro-4H-2,6-methano-benzo[d]azocine-3-carbonyl]-phenyl}-acetamide]: the 50% inhibitory concentration (IC50) turned out to be 629 nM.

In turn, `CC(=O)c1ccc(C(=O)N2CC[C@@]3(C)c4cccc(O)c4C[C@@H]2C3(C)C)cc1` [Example 28, 1-{4-[(2R,6S)-10-Hydroxy-6,11,11-trimethyl-1,2,5,6-tetrahydro-4H-2,6-methano-benzo[d]azocine-3-carbonyl]-phenyl}-ethanone] came in with a half-inhibitory concentration (IC50) of 3680 nM.

Take `Cn1c(=O)[nH]c2cc(C(=O)N3CC[C@@]4(C)c5cccc(O)c5C[C@@H]3C4(C)C)ccc21` [Example 29, 5-[(2R,6S)-10-Hydroxy-6,11,11-trimethyl-1,2,5,6-tetrahydro-4H-2,6-methano-benzo[d]azocine-3-carbonyl]-1-methyl-1,3-dihydro-benzoimidazol-2-one]: inhibition was half-maximal at 1730 nM (IC50).

Compound `COC(=O)c1cccc(C(=O)N2CC[C@@]3(C)c4cccc(O)c4C[C@@H]2C3(C)C)c1` [Example 30, 3-[(2R,6S)-10-Hydroxy-6,11,11-trimethyl-1,2,5,6-tetrahydro-4H-2,6-methano-benzo[d]azocine-3-carbonyl]-benzoic acid methyl ester] registered an IC50 of 1400 nM.

`CC1(C)[C@H]2Cc3c(O)cccc3[C@]1(C)CCN2C(=O)c1ccc2cc[nH]c2c1` [Example 31, [(2R,6S)-10-Hydroxy-6,11,11-trimethyl-1,2,5,6-tetrahydro-4H-2,6-methano-benzo[d]azocin-3-yl]-(1H-indol-6-yl)-methanone] displayed a concentration for half-maximal inhibition (IC50) of 88 nM.

Take `C#Cc1cc(C(=O)N2CC[C@@]3(C)c4cccc(O)c4C[C@@H]2C3(C)C)ccc1C(=O)N1CCCC1` [Example 32, [3-Ethynyl-4-(pyrrolidine-1-carbonyl)-phenyl]-[(2R,6S)-10-hydroxy-6,11,11-trimethyl-1,2,5,6-tetrahydro-4H-2,6-methano-benzo[d]azocin-3-yl]-methanone]: half-maximal inhibition (IC50) was put at 915 nM.

Turning to `CC1(C)[C@H]2Cc3c(O)cccc3[C@]1(C)CCN2C(=O)c1ccc2c(c1)NC(=O)C2` [Example 33, 6-[(2R,6S)-10-Hydroxy-6,11,11-trimethyl 1,2,5,6-tetrahydro-4H-2,6-methano-benzo[d]azocine-3-carbonyl]-1,3-dihydro-indol-2-one], the IC50 turned out to be 3490 nM.

`Cc1nc2cc(C(=O)N3CC[C@@]4(C)c5cccc(O)c5C[C@@H]3C4(C)C)ccc2c(=O)[nH]1` [Example 34, 7-[(2R,6S)-10-Hydroxy-6,11,11-trimethyl-1,2,5,6-tetrahydro-4H-2,6-methano-benzo[d]azocine-3-carbonyl]-2-methyl-3H-quinazolin-4-one] displayed an IC50 of 3880 nM.

On to `Cc1cc(C(=O)N2CC[C@@]3(C)c4cccc(O)c4C[C@@H]2C3(C)C)ccc1C(=O)N1CCCC1` [Example 35, [(2R,6S)-10-Hydroxy-6,11,11-trimethyl-1,2,5,6-tetrahydro-4H-2,6-methano-benzo[d]azocin-3-yl]-[3-methyl-4-(pyrrolidine-1-carbonyl)-phenyl]-methanone], for which inhibition was half-maximal at 672 nM (IC50).

`CNC(=O)c1ccc(C(=O)N2CC[C@@]3(C)c4cccc(O)c4C[C@@H]2C3(C)C)cc1` [Example 36, 4-[(2R,6S)-10-Hydroxy-6,11,11-trimethyl-1,2,5,6-tetrahydro-4H-2,6-methano-benzo[d]azocine-3-carbonyl]-N-methyl-benzamide] displayed a half-inhibitory concentration (IC50) of 3660 nM.

In turn, `CN(C)C(=O)c1ccc(C(=O)N2CC[C@@]3(C)c4cccc(O)c4C[C@@H]2C3(C)C)cc1` [Example 37, 4-[(2R,6S)-10-Hydroxy-6,11,11-trimethyl-1,2,5,6-tetrahydro-4H-2,6-methano-benzo[d]azocine-3-carbonyl]-N,N-dimethyl-benzamide] returned a half-maximal inhibitory concentration (IC50) of 998 nM.

`CN(C)C(=O)c1cccc(C(=O)N2CC[C@@]3(C)c4cccc(O)c4C[C@@H]2C3(C)C)c1` [Example 38, 3-[(2R,6S)-10-Hydroxy-6,11,11-trimethyl-1,2,5,6-tetrahydro-4H-2,6-methano-benzo[d]azocine-3-carbonyl]-N,N-dimethyl-benzamide] displayed a half-inhibitory concentration (IC50) of 1440 nM.

With `CNC(=O)c1cccc(C(=O)N2CC[C@@]3(C)c4cccc(O)c4C[C@@H]2C3(C)C)c1` [Example 39, 3-[(2R,6S)-10-Hydroxy-6,11,11-trimethyl-1,2,5,6-tetrahydro-4H-2,6-methano-benzo[d]azocine-3-carbonyl]-N-methyl-benzamide], the midpoint of inhibition, the IC50, lay at 1590 nM.

For `COC[C@H]1CCCN1C(=O)c1cccc(C(=O)N2CC[C@@]3(C)c4cccc(O)c4C[C@@H]2C3(C)C)c1` [Example 40, [(2R,6S)-10-Hydroxy-6,11,11-trimethyl-1,2,5,6-tetrahydro-4H-2,6-methano-benzo[d]azocin-3-yl]-[3-((R)-2-methoxymethyl-pyrrolidine-1-carbonyl)-phenyl]-methanone], it took 542 nM to reach half-maximal inhibition (IC50).
